Experimental findings from the supplement of paper PMC3493320 are described below.

Where only a bound is given, the exact number is not on record here.

The test relates to NCI-H295R. The test can be described thus: IC50 (antiproliferative, ATP content). As to conditions: 48 h. The method, boiled down:
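Following overnight culture of adrenocortical carcinoma cells (1500 per well) in 1536-well plates with serum-free ITS-supplemented DMEM, library compounds were pin-transferred at 8 final concentrations from 0.6 nM to 46 µM. Incubation lasted 48 h at 37 °C, 5% CO2, and the CellTiter-Glo signal was read after 20 min at room temperature. Data were fitted with a four-parameter logistic model. Each IC50 came from that fit after normalisation to vehicle and positive-control wells, and compounds without a concentration response were reported as above the top dose.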
`Nc1nc(F)nc2c1ncn2[C@H]1O[C@@H](CO)[C@H](O)[C@H]1O` yielded an IC50 of over 46 µM.
With `NS(=O)(=O)c1cc(-c2nnn[nH]2)c(NCc2cccs2)cc1Cl`, the IC50 is over 46 µM.
Under `Cl.Cn1c(NCCN(CCO)CCCc2ccc([N+](=O)[O-])cc2)cc(=O)n(C)c1=O` stands over 46 µM; under `Cc1cccc(C)c1NC(=O)CC12CCCN1CCC2`, over 46 µM; under `O=C(O)c1cc(-c2ccccc2)nc2ccccc12`, over 46 µM.
With `O=C1C(CCS(=O)c2ccccc2)C(=O)N(c2ccccc2)N1c1ccccc1` (stereo unspecified), the IC50 was over 46 µM.
The compound `CCOC(=O)/C=C(C)/C=C/C[C@@H](C)CCCC(C)C` had an IC50 of over 46 µM.
Take `Nc1ccc([As](=O)(O)O)cc1`: the IC50 was over 46 µM.
The compound `O=S(=O)(O)c1ccc(O)cc1` showed an IC50 of over 46 µM.
Consider `C=1(C(\C(C(=O)OC)=C(/NC=1C)C)c3c2c(non2)ccc3)C(OC(C)C)=O` (stereo unspecified), for which the 50% inhibitory concentration (IC50) is over 46 µM.
On to `O=C1O[C@H]([C@@H](O)CO)C(O)=C1O`, for which the IC50 was over 46 µM.
With `COc1cc2nc(N3CCN(C(=O)C4COc5ccccc5O4)CC3)nc(N)c2cc1OC.CS(=O)(=O)O` (stereo unspecified), the concentration for half-maximal inhibition (IC50) is over 46 µM.
For the compound `CC(=O)c1ccc(S(=O)(=O)NC(=O)NC2CCCCC2)cc1`, the 50% inhibitory concentration (IC50) is over 46 µM.
As for `OC[C@H]1O[C@@H]2O[C@H]3[C@H](O)[C@@H](O)[C@@H](O[C@H]4[C@H](O)[C@@H](O)[C@@H](O[C@H]5[C@H](O)[C@@H](O)[C@@H](O[C@H]6[C@H](O)[C@@H](O)[C@@H](O[C@H]7[C@H](O)[C@@H](O)[C@@H](O[C@H]1[C@H](O)[C@H]2O)O[C@@H]7CO)O[C@@H]6CO)O[C@@H]5CO)O[C@@H]4CO)O[C@@H]3CO`, the concentration for half-maximal inhibition (IC50) was over 46 µM.
`CNC(=C[N+](=O)[O-])NCCSCc1csc(CN(C)C)n1` came in with a half-inhibitory concentration (IC50) of over 46 µM.
Under `CN(C)CCCSc1ccccc1NC(=O)/C=C/c1ccccc1` stands over 46 µM; under `O[C@H]1[C@@H]([C@H](O)CO)O[C@H]2[C@@H]1O[C@H]([C@@](Cl)(Cl)Cl)O2`, over 46 µM; under `COC(=O)[C@@H](N)CS.Cl`, over 46 µM.
Under `Nc1nc(N)c(-c2ccccc2)s1` stands over 46 µM; under `CC[N+](C)(CC)CCOC(=O)C1c2ccccc2Oc2ccccc21.[Br-]`, over 46 µM.
In turn, `O=C(O)c1cccc(-c2noc(-c3ccccc3F)n2)c1` had a concentration for half-maximal inhibition (IC50) of over 46 µM.
Under `CCCCNC(=N)NC(=N)N` stands over 46 µM.
Take `COc1cc(O)c(C(=O)c2ccccc2)cc1S(=O)(=O)O`: the IC50 was over 46 µM.
`CCOC(=O)C1=C[C@@H](OC(CC)CC)[C@H](NC(C)=O)[C@@H](N)C1.O=C(O)C(O)C(O)C(=O)O` yielded an IC50 of over 46 µM.
Turning to `CCOC(=O)c1ccc(O)cc1`, the IC50 was over 46 µM.
Under `O=C(O)CCCCC(=O)O` stands over 46 µM; under `Oc1ccc2c3c1O[C@H]1[C@@H](O)CC[C@@]4(O)[C@@H](C2)N(CC2CCC2)CC[C@]314`, over 46 µM.
`COc1cc(Cc2cnc(N)nc2N)cc(OC)c1OC`: the half-maximal inhibitory concentration (IC50) is over 46 µM.
Then `CN1CCN(C(=O)C2CCCCC2)CC1`, with over 46 µM.
On to `O=c1c(-c2ccc(O)cc2)coc2cc(O)cc(O)c12`, for which the IC50 was over 46 µM.
Consider `C[N+](C)(C)CC(O)CC(=O)[O-].Cl` (stereo unspecified), for which the half-inhibitory concentration (IC50) was over 46 µM.
In turn, `CCOC(=O)C=C(C)C=CC=C(C)C=Cc1c(C)cc(OC)c(C)c1C` registered an IC50 of over 46 µM.
`Cc1cc(NC(=O)C2=C(O)c3ccccc3S(=O)(=O)N2C)no1`: the half-inhibitory concentration (IC50) was over 46 µM.
The compound `CC1NCCOC1c1ccccc1.Cl` (stereo unspecified) had an IC50 of over 46 µM.
Then `O=C1Nc2ccc(Cl)cc2C(c2ccccc2)=NC1O` (stereo unspecified), with over 46 µM; and `O=C(O)CCc1nc2ccccc2[nH]1`, with over 46 µM; and `Cc1cc(O)cc(C)c1Cl`, with over 46 µM.
`N#Cc1c(N(CC(=O)[O-])CC(=O)[O-])sc(C(=O)[O-])c1CC(=O)[O-].O.O.O.O.O.O.O.[Sr+2].[Sr+2]`: the IC50 was over 46 µM.
Compound `CCOC(=O)C1=C(C)NC(C)=C(C(=O)OC)C1c1cccc([N+](=O)[O-])c1` (stereo unspecified) yielded a concentration for half-maximal inhibition (IC50) of over 46 µM.
The compound `NC[C@@H](C1)[C@]1([C@@]2=CC=CC=C2)C(N(CC)CC)=O.Cl` displayed an IC50 of over 46 µM.
Then `Cl.O=C(OCCN1CCCCC1)C(O)(c1ccccc1)c1ccccc1`, with over 46 µM; and `C#C[C@]1(O)CC[C@H]2[C@@H]3CCC4=CC(=O)CC[C@@H]4[C@H]3CC[C@@]21C`, with over 46 µM.
In the case of `Cl.N=C(N)NC(=N)N1CCOCC1`, the IC50 was over 46 µM.
Regarding `O=C(O)[C@H]1CN(C/C=C/P(=O)(O)O)CCN1`, the half-inhibitory concentration (IC50) is over 46 µM.
`CC(=O)Oc1cccc(C)c1`: the IC50 is over 46 µM.
Regarding `C[N+]1(CCC(C(N)=O)(c2ccccc2)c2ccccc2)CCCCC1.[Br-]`, the half-maximal inhibitory concentration (IC50) was over 46 µM.
As to `CCCCC[C@H](O)/C=C/[C@H]1[C@H](O)CC(=O)[C@@H]1C/C=C\CCCC(=O)O`, the IC50 is over 46 µM.
Under `COc1cc(C(=O)N2CCCCCCC2)cc(OC)c1OC` stands over 46 µM; under `O=C(O)c1cccnc1`, over 46 µM.
`CC1=C(/C=C/C(C)=C/C=C/C(C)=C/C(=O)Oc2c(C)c(C)c3c(c2C)CC[C@@](C)(CCC[C@H](C)CCC[C@H](C)CCCC(C)C)O3)C(C)(C)CCC1` showed a half-inhibitory concentration (IC50) of over 46 µM.
For the compound `Cc1cc(C)nc(NS(=O)(=O)c2ccc(N)cc2)n1`, the half-maximal inhibitory concentration (IC50) was over 46 µM.
Compound `CCOC(=O)CC(SP(=S)(OC)OC)C(=O)OCC` (stereo unspecified) came in with an IC50 of over 46 µM.
For `NCC[C@H](O)C(=O)N[C@@H]1C[C@H](N)[C@@H](O[C@H]2O[C@H](CN)[C@@H](O)[C@H](O)[C@H]2N)[C@H](O[C@@H]2O[C@H](CO)[C@H](O)[C@H]2O)[C@H]1O.O=S(=O)(O)O.O=S(=O)(O)O`, the IC50 is over 46 µM.
As for `Cc1cc(C)c(NC(=O)C[C@H](CC(=O)[O][Na])c2cccc3ccccc23)c(C(=O)N2CCC3(CCCC3)CC2)c1`, the IC50 is over 46 µM.
Under `Clc1cccc(SC2CCNCC2)n1` stands over 46 µM; under `COP(=S)(OC)SCN1C(=O)c2ccccc2C1=O`, over 46 µM.
Under `O=C1CN(N=Cc2ccc(-c3ccc([N+](=O)[O-])cc3)o2)C(=O)[N-]1.[Na+]` stands over 46 µM.
Then `O=[C@](N[C@H]2C[C@@H]2[C@]3=CC=CC=C3)[C@H]1NC(CC1)=O`, with over 46 µM; and `CCCC(C)(COC(N)=O)COC(=O)NC1CC1` (stereo unspecified), with over 46 µM.
As to `Nc1ccc(C=Cc2ccc(N)cc2S(=O)(=O)O)c(S(=O)(=O)O)c1`, the half-inhibitory concentration (IC50) is over 46 µM.
Regarding `CCCCC/C=C\C/C=C\CCCCCCCC(=O)O`, the IC50 was over 46 µM.
Then `Cc1cc(C(C)(C)C)c(O)c(C)c1CC1=NCCN1`, with over 46 µM; and `CCC(C(=O)OCCOCCN(CC)CC)c1ccccc1.O=C(O)CC(O)(CC(=O)O)C(=O)O` (stereo unspecified), with over 46 µM.
`Clc1cccc(Cl)c1N=C1NCCN1` gave an IC50 of over 46 µM.
`O=C1CCC(c2ccccc2)(C2CCN(Cc3ccccc3)CC2)C(=O)N1` (stereo unspecified) displayed an IC50 of over 46 µM.
For `CC(C)CCCC(C)NC(C)C` (stereo unspecified), the IC50 is over 46 µM.
In turn, `CC(Cc1ccccc1)NCc1ccccc1Cl.Cl` (stereo unspecified) gave a half-maximal inhibitory concentration (IC50) of over 46 µM.
`NS(=O)(=O)c1cc2c(cc1Cl)NCNS2(=O)=O` yielded an IC50 of over 46 µM.
Regarding `CCCC(C)(COC(N)=O)COC(=O)NC(C)C` (stereo unspecified), the half-maximal inhibitory concentration (IC50) was over 46 µM.
Then `NC(=O)OCC(COC(N)=O)c1ccccc1`, with over 46 µM; and `CC(C(=O)O)c1ccc2c(c1)Cc1cccnc1O2` (stereo unspecified), with over 46 µM; and `COP(=O)(OC)OC=C(Cl)Cl`, with over 46 µM.
Under `C#C[C@]1(O)CC[C@H]2[C@@H]3CCc4cc(OC)ccc4[C@H]3CC[C@@]21C` stands over 46 µM; under `Nc1nc(=O)c2c([nH]1)NCC(CNc1ccc(C(=O)N[C@@H](CCC(=O)[O-])C(=O)[O-])cc1)N2C=O.[Ca+2]` (stereo partly specified), over 46 µM.
`Cc1cc2c(s1)Nc1ccccc1N=C2N1CCN(C)CC1` gave an IC50 of over 46 µM.
The compound `Cc1cc(NS(=O)(=O)c2ccc(N)cc2)no1` yielded an IC50 of over 46 µM.
As to `CCc1cc(C(N)=S)ccn1`, the concentration for half-maximal inhibition (IC50) was over 46 µM.
`Cc1cc(O)cc2c1O[C@](C)(CCC[C@H](C)CCC[C@H](C)CCCC(C)C)CC2` gave a 50% inhibitory concentration (IC50) of over 46 µM.
Under `C=CCc1ccccc1OCC(O)CNC(C)C` (stereo unspecified) stands over 46 µM; under `COC(=O)C(c1ccccc1)C1CCCCN1.Cl` (stereo unspecified), over 46 µM.
In turn, `Cn1cnc2c1c(=O)[nH]c(=O)n2C` gave a concentration for half-maximal inhibition (IC50) of over 46 µM.
On to `CCn1cc(C(=O)O)c(=O)c2cc(F)c(N3CCNC(C)C3)c(F)c21.Cl` (stereo unspecified), for which the IC50 was over 46 µM.
With `CC(C)COC(=O)OCN1C(=O)CN(CCN2CC(=O)N(COC(=O)OCC(C)C)C(=O)C2)CC1=O`, the IC50 is over 46 µM.
The compound `CCCC[N@@+]1(C)[C@@H]2C[C@@H](OC(=O)[C@H](CO)c3ccccc3)C[C@H]1[C@@H]1O[C@@H]12.[Br-]` displayed an IC50 of over 46 µM.
The compound `COC(=O)CCC[N+](C)(C)C.[Cl-]` gave an IC50 of over 46 µM.
For the compound `CCOC(=O)C1=C(C)NC(C)=C(C(=O)OC)C1c1cccc(Cl)c1Cl` (stereo unspecified), the IC50 is over 46 µM.
Under `CC(=O)N[C@@H](CC(=O)N[C@@H](CCC(=O)O)C(=O)O)C(=O)O` stands over 46 µM.
Under `O[C@]([C@@H](CC3)CC[C@@]3(C#N)C(C=C1OC2CCCC2)=CC=C1OC)=O` stands over 46 µM; under `O=C(O)CCC/C=C\C[C@@H]1[C@@H](/C=C/[C@@H](O)COc2cccc(C(F)(F)F)c2)[C@H](O)C[C@@H]1O`, over 46 µM; under `CC(O)Cn1cnc2c1c(=O)n(C)c(=O)n2C` (stereo unspecified), over 46 µM.
Turning to `C[N+]1(CCCCC[N+]2(C)CCCC2)CCCC1.O=C([O-])[C@H](O)[C@@H](O)C(=O)O.O=C([O-])[C@H](O)[C@@H](O)C(=O)O`, the 50% inhibitory concentration (IC50) is over 46 µM.
